Data reported in ChEMBL document CHEMBL5038592, “Discovery of MK-8153, a Potent and Selective ROMK Inhibitor and Novel Diuretic/Natriuretic” (J Med Chem, 2021).
Active and inactive are the calls of the source. No cut-off for these calls is given here.

Legend:
[1] = Metabolic stability in rhesus monkey liver microsomes by LC/MS analysis; type: ADME, Macaca mulatta, Microsome
[2] = Effective half life in rhesus monkey at 2 mg/kg, po or 1 mg/kg, iv; type: ADME, organism-based, Macaca mulatta; settings: in vivo, read-out: t1/2eff (converted)
Rattus norvegicus [3] = assay: Antihypertensive activity in spontaneous hypertensive rat model assessed as decrease in systolic blood pressure at 3 mg/kg, po QD observed for 3 days; type: functional, organism-based; settings: time 3.0 day
[4] = Terminal half life in Beagle dog at 2 mg/kg, po or 1 mg/kg, iv; type: ADME, organism-based, Canis lupus familiaris; settings: in vivo, read-out: beta t1/2 (converted)
Cytochrome P450 2C9 = Cytochrome P450 2C9 (Homo sapiens, UniProt P11712); assay: Inhibition of CYP2C9 (unknown origin)
[5] = Drug metabolism in human hepatocytes assessed as metabolite formation by LC/MS analysis; type: ADME, cell-based, Hepatocyte
[6] = Clearance in rhesus monkey at 2 mg/kg, po or 1 mg/kg, iv; type: ADME, organism-based, Macaca mulatta; settings: in vivo
Rattus norvegicus [7] = assay: Diuretic activity in orally dosed spontaneous hypertensive rat assessed as increase in sodium excretion treated for 3 days measured after 0 to 4 hrs of dosing; type: functional, organism-based; settings: time 3.0 day
[8] = Inhibition of Kir2.1 (unknown origin); design: species or system Homo sapiens
[9] = molecular target: Sodium channel protein type 5 subunit alpha (Homo sapiens, UniProt Q14524); assay: Inhibition of Nav1.5 (unknown origin)
[10] = Metabolic stability in Wistar Han rat liver microsomes by LC/MS analysis; type: ADME, Microsome
[11] = Metabolic stability in Beagle dog liver microsomes by LC/MS analysis; type: ADME, Canis lupus familiaris, Microsome
Cytochrome P450 2D6 = Cytochrome P450 2D6 (Homo sapiens, UniProt P10635); assay: Inhibition of CYP2D6 (unknown origin)
[12] = Tmax in Wistar Han rat at 2 mg/kg, po or 1 mg/kg, iv; type: ADME, organism-based; settings: in vivo
[13] = Metabolic stability in human hepatocytes by LC/MS analysis; type: ADME, cell-based, Hepatocyte
Rattus norvegicus [14] = assay: Diuretic activity in orally dosed spontaneous hypertensive rat assessed as urine volume treated for 3 days measured after 0 to 24 hrs of dosing; type: functional, organism-based; settings: time 3.0 day
[15] = Tmax in Beagle dog at 2 mg/kg, po or 1 mg/kg, iv; type: ADME, organism-based, Canis lupus familiaris; settings: in vivo
[16] = Metabolic stability in Beagle dog hepatocytes by LC/MS analysis; type: ADME, cell-based, Canis lupus familiaris, Hepatocyte
Rattus norvegicus [17] = assay: Antihypertensive activity in spontaneous hypertensive rat model assessed as decrease in systolic blood pressure at 1 mg/kg, po QD observed for 3 days; type: functional, organism-based; settings: time 3.0 day
[18] = Clearance in Beagle dog at 2 mg/kg, po or 1 mg/kg, iv; type: ADME, organism-based, Canis lupus familiaris; settings: in vivo
[19] = Drug excretion in bile-duct cannulated rat assessed as urinary excretion; type: ADME; settings: urine, read-out: Drug excretion
[20] = Apparent permeability in pig LLC-PK1 cells
[21] = Toxicity in rat assessed as change in body weight at 5 to 300 mg/kg treated for 7 days; type: organism-based; settings: in vivo, 168 h, dose 5-300 mg/kg, time 7 day
[22] = Volume of distribution at steady state in rhesus monkey at 2 mg/kg, po or 1 mg/kg, iv; type: ADME, organism-based, Macaca mulatta; settings: in vivo, read-out: Vdss
[23] = molecular target: T1, Inward rectifier potassium channel 13 (Homo sapiens, UniProt O60928); assay: Inhibition of Kir7.1 (unknown origin)
T1 sequence (O60928 whole entry): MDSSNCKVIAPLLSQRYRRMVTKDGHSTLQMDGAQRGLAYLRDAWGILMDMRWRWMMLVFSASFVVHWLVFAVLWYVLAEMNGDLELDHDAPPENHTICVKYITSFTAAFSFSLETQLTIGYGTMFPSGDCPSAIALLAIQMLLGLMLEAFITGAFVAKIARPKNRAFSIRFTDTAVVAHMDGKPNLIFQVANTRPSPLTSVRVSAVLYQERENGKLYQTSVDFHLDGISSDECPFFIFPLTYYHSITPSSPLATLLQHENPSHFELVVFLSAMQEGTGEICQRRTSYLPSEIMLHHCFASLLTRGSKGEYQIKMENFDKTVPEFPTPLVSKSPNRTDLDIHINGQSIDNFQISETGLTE

[24] = Toxicity in rat assessed as histological changes at 5 to 300 mg/kg treated for 7 days; type: organism-based; settings: in vivo, 168 h, dose 5-300 mg/kg, time 7 day
[25] = Drug metabolism in rhesus monkey hepatocytes assessed as N-acetylglucosamine conjugate metabolite formation by LC/MS analysis; type: ADME, cell-based, Macaca mulatta, Hepatocyte
[26] = Oral bioavailability in rhesus monkey at 2 mg/kg; type: ADME, organism-based, Macaca mulatta; settings: in vivo
Rattus norvegicus [27] = assay: Diuretic activity in orally dosed spontaneous hypertensive rat assessed as urine volume treated for 3 days measured after 0 to 4 hrs of dosing; type: functional, organism-based; settings: time 3.0 day
[28] = Oral bioavailability in Wistar Han rat at 2 mg/kg; type: ADME, organism-based; settings: in vivo
[29] = Metabolic stability in human liver microsomes by LC/MS analysis; type: ADME, Microsome

Chain of Cytochrome P450 2C9 (P11712 whole entry): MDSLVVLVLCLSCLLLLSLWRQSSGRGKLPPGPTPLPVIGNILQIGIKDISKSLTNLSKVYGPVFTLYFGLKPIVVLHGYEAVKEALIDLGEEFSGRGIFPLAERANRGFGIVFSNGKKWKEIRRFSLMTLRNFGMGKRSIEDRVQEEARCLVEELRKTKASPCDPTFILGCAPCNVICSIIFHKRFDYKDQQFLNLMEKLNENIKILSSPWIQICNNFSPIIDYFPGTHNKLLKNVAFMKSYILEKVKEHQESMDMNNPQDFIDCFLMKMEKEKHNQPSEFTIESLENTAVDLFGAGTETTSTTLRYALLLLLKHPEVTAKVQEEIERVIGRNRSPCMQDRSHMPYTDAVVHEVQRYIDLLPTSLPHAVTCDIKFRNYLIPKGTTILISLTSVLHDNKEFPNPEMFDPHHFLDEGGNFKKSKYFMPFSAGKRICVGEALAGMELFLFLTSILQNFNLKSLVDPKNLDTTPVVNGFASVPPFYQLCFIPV
Chain of Sodium channel protein type 5 subunit alpha (Q14524 whole entry): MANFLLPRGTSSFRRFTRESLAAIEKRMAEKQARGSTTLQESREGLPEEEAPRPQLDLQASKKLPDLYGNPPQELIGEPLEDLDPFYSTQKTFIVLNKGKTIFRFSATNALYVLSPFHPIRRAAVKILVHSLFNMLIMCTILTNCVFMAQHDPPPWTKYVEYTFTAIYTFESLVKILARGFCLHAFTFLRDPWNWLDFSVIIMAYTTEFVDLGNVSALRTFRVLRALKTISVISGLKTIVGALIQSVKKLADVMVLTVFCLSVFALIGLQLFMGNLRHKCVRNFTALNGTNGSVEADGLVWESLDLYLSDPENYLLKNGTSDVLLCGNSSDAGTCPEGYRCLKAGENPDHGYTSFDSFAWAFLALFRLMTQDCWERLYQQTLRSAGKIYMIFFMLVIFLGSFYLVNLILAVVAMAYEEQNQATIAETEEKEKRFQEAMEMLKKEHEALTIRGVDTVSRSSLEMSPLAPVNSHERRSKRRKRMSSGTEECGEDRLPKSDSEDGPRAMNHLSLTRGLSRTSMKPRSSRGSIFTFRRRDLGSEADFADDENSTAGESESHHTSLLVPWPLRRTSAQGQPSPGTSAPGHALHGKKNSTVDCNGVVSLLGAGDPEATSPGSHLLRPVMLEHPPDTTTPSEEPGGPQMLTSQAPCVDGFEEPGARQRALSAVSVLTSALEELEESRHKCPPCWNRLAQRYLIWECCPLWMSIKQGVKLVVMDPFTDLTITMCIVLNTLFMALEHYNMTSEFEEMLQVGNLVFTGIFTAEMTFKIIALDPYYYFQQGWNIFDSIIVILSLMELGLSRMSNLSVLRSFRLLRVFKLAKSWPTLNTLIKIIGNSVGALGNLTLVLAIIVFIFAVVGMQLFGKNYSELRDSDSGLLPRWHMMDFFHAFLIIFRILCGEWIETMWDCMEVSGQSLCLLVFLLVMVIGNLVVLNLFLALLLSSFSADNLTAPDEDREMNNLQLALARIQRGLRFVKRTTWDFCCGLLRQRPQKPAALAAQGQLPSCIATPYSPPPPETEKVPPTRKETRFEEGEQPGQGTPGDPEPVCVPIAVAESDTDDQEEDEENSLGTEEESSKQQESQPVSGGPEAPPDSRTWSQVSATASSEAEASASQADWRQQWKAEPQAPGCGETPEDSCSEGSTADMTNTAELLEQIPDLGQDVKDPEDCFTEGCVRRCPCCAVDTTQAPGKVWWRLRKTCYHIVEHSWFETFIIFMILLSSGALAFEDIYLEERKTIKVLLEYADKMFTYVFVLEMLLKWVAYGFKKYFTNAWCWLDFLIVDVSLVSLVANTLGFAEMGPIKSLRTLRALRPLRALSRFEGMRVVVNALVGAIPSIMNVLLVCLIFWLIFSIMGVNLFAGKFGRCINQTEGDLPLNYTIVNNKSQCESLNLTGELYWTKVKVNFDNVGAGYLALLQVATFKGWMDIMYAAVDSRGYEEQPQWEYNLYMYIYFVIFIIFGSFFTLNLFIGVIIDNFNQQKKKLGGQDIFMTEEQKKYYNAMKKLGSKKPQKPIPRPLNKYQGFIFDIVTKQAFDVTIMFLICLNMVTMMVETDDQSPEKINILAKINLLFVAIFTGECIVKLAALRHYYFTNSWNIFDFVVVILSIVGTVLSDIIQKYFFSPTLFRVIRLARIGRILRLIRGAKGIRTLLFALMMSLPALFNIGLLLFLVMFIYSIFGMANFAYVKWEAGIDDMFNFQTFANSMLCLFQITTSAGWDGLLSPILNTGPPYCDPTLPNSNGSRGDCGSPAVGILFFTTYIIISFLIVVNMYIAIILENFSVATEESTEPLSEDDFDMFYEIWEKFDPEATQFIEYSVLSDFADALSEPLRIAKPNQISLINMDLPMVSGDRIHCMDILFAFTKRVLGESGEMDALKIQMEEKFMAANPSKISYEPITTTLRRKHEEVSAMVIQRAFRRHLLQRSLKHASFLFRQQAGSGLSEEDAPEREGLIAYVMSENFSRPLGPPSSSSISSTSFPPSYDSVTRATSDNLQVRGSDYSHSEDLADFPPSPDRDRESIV
Chain of Cytochrome P450 2D6 (P10635 whole entry): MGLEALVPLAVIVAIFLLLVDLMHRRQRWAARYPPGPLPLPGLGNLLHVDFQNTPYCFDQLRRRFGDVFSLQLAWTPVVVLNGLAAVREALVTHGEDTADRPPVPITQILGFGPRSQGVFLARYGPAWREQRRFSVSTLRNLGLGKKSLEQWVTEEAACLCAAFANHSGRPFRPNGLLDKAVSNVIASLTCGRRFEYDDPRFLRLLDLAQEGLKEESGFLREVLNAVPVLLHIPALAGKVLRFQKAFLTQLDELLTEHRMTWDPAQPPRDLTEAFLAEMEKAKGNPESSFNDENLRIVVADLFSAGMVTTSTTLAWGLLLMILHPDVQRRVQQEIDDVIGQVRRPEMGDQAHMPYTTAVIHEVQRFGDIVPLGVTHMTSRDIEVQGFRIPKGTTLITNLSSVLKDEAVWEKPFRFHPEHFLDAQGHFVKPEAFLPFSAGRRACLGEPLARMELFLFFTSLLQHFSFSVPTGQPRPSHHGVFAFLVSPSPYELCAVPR

Stability [1]: Stable | half-life [2]: 1.8 h | half-life [4]: 9.1 h | IC50 (Cytochrome P450 2C9): > 50 µM | Drug metabolism [5]: Metabolite_Notdetected | clearance [6]: 58.3 mL/min/kg | IC50 [8]: > 100 µM | Stability [10]: Stable | Stability [11]: Stable | IC50 (Cytochrome P450 2D6): > 50 µM | Tmax [12]: 0.5 h | Stability [13]: Stable | Tmax [15]: 0.8 h | Stability [16]: Stable | clearance [18]: 8.7 mL/min/kg | dose excreted [19]: 66% | Papp [20]: 21 ×10⁻⁶ cm/s | Vd [22]: 7.9 L/kg | IC50 [23]: > 100 µM | Drug metabolism [25]: Metabolite_Detected | bioavailability [26]: 3.4% | bioavailability [28]: 53% | Stability [29]: Stable
Compound: CC1=C(N2CCC3(CCN(C[C@H](O)c4ccc5c(c4C)COC5=O)CC3)C2=O)COC1=O
Activity (Rattus norvegicus [3]): Dose-Dependent Effect | Activity (Rattus norvegicus [7]): Dose-Dependent Effect | IC50 [9]: > 30 µM | Activity (Rattus norvegicus [14]): Dose-Dependent Effect | Activity (Rattus norvegicus [17]): Active | Activity [21]: Non-Toxic | Activity [24]: Non-Toxic | Activity (Rattus norvegicus [27]): Dose-Dependent Effect
